Here are results for 11 molecules from patent US20120245213A1, “HUMAN TYPE I TASTE RECEPTOR SUBUNIT 3 MODULATORS AND METHODS OF USING SAME” (priority 2009, published 2012).

One test addresses T1, human T1R2+T1R3 receptor (Homo sapiens, UniProt Q7RTX0).
T1 construct: expressed in transfected cells; host or cells: HEK293E
T1 sequence (Q7RTX0 21-852): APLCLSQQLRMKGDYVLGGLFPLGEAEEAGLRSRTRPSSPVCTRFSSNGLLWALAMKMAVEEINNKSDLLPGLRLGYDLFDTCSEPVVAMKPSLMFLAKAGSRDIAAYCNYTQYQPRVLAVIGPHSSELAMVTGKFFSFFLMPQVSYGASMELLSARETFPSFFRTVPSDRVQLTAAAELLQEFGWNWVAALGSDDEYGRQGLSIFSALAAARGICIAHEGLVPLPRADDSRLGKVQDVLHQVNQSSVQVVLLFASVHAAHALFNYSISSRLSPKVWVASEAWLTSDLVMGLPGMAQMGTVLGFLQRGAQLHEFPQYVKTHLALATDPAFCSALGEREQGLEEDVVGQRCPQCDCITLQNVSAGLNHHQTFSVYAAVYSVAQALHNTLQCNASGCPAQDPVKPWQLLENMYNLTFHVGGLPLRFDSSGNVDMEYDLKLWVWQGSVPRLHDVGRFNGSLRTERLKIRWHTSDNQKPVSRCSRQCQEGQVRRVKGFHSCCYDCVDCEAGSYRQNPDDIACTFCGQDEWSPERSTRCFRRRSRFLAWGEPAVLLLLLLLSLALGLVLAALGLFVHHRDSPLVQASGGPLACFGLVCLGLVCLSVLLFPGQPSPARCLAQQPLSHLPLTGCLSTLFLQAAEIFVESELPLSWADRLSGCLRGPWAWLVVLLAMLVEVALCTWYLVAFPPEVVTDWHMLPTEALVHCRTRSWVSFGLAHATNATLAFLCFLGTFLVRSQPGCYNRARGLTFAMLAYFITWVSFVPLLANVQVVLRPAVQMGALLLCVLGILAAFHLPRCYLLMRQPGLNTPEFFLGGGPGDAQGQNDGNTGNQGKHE
T1 sequence (Q8TE23 20-839 partner): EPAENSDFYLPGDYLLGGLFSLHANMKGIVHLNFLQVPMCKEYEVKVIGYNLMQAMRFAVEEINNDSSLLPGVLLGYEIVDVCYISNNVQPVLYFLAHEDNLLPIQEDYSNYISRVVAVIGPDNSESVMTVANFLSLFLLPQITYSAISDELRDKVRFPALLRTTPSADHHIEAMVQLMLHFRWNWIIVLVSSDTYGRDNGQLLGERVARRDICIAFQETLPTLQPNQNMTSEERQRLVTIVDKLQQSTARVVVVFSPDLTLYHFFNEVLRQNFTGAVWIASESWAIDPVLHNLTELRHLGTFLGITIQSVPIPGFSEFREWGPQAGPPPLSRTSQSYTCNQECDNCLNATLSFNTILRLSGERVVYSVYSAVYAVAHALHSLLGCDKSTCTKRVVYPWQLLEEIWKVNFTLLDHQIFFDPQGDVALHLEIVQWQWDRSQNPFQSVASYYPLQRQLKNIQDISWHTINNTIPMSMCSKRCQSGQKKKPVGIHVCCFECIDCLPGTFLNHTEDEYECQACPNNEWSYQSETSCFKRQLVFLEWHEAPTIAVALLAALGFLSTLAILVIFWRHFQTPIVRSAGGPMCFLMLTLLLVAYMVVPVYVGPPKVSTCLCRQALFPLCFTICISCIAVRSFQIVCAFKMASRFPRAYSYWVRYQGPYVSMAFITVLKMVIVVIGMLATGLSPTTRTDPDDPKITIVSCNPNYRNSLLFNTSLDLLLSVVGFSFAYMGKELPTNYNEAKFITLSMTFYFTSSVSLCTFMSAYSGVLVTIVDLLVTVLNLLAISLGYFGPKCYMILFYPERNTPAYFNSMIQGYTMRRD
As to the kind of experiment: Heterologous calcium mobilization assay, HEK293 cells expressing human sweet receptor. It counts as cell-based. The settings on record: for inhibition of the human sweet receptor: at up to 500 μM. How it is done: T1R2+T1R3 subunits were transfected into HEK cells along with the promiscuous Gq-type protein G16-gust44. Activation of receptors by agonists was followed using the calcium-sensitive fluorescent dye fluo-4-AM in a 96-well format with the fluorescent microplate reader Flexstation II (Molecular Devices). Inhibitors were added concomitantly with the sweetener sucralose at 2.5 mM (saturating concentration). […] Fluorescence signal (F) is expressed in arbitrary units (AU). The down arrow indicates the injection of the sweetener-inhibitors mixture on the cells. […] Peak calcium signal is expressed as ΔF/F in %, normalized to control (sucralose alone). Data are from a representative experiment, means±SD, done in quadruplicate.
HEK293E cells were cultured at 37° C. in Optimem GlutaMAX culture medium (Invitrogen) supplemented with 4% dialyzed fetal bovine serum. Cells were transfected with the DNA constructs using lipofectamine-2000 according to the manufacturer's protocol (Invitrogen). Briefly, cells were seeded onto 96-well poly-D-lysine plates (Corning) at about 12,500 cells/well 18 hours prior to transfection; and co-transfected with plasmid DNAs encoding […] and G 16-gust44 (0.1 μg total DNA/well; 0.2 μl lipofectamine/well). After 24 hours, the transfected cells were washed once with the culture medium and incubated for another 24 hours. The cells were washed with HBSS supplemented with 20 mM Hepes (HBSS-H), loaded with 3 μM Fluo-4AM (Molecular Probe) in HBSS-H buffer, incubated for 1.5 hours at room temperature, and then washed with HBSS-H and maintained in HBSS-H at 25° C. […] Sweeteners were added 30 seconds after the start of the scan at 2× concentration in 50 μl of HBSS-H while monitoring fluorescence for an additional 200 seconds at 2 seconds intervals. Where tested, inhibitors were added along with sweeteners to the cells.
The data were expressed as the mean±S.E. of quadruplicate or sextuplicate of the F/F values, or were normalized as described. The bar graph and curving-fitting routines were carried out using Graph-Pad Prism 3.0 (GraphPad Software, Inc.).
To determine if phenoxy-herbicides and fibrates had inhibitory properties, a cell-based assay with HEK 293 cells expressing the human sweet receptor composed of hT1R3 and hT1R2 was used.
IC50s are means±SD from at least 3 independent experiments.

Test [1] concerns sweet and umami (MSG) taste. Description: Psychophysical self-experimentation on taste. It counts as in vivo, human. The conditions noted are these: self-experimentation by one of the inventors. The text has this:
T1R3's role as a critical component of sweet and umami receptors in taste cells is well established (Zhao, supra; and Max, supra). T1R3, like gustducin, has also been implicated in glucose-sensing functions of gut endocrine cells and thereby in glucose homeostasis (Jang, supra).

Setting [2] is: HEK 293 cells, hT1R2+hT1R3, 2.5 mM sucralose, read-out: IC50, inhibition of human sweet receptor.
Setting [3] is: hT1R2+hT1R3 activated by 2.5 mM sucralose, mean (SD), at least 3 independent experiments, read-out: IC50 (μM (SD)).

The structures appear in SMILES notation. Read-outs that look alike come from different tables or passages of the source.

On to `CC(Oc1cc(Cl)c(Cl)cc1Cl)C(=O)O` (centres unmarked) [2,4,5TPP, 2-(2,4,5-trichlorophenoxy) propanoic acid], for which the IC50 (as a rule, the concentration that inhibits the measured activity by half) on human T1R2+T1R3 receptor was 5 to 12 µM.
Turning to `O=C(O)COc1ccc(Cl)cc1` [4-CPA, (4-chlorophenoxy)acetic acid], the IC50 at human T1R2+T1R3 receptor was not below 142 µM.
For the molecule `CC(C)(Oc1ccc(CCNC(=O)c2ccc(Cl)cc2)cc1)C(=O)O` [Bezafibric acid, 2-[4-(2-{[(4-chlorophenyl)carbonyl]amino}ethyl)phenoxy]-2-methylpropanoic acid, reference compound], the IC50 on human T1R2+T1R3 receptor (setting [2]) was 30 to 100 µM.
With `CC(C)(Oc1ccc(Cl)cc1)C(=O)O` [Clofibric acid, 2-(4-chlorophenoxy)-2-methylpropanoic acid], in test [1], the “inhibition of sweet taste in vivo” value is listed as “potently inhibited” and the “inhibition of umami (MSG) taste in vivo” value is “potently inhibited”.
On to `Cc1ccc(C)c(OCCCC(C)(C)C(=O)O)c1` [Gemfibrozil, 5-(2,5-dimethylphenoxy)-2,2-dimethylpentanoic acid, reference compound], for which, at human T1R2+T1R3 receptor (setting [2]), the IC50 was 30 to 100 µM.
On to `O=C(O)Cc1c[nH]c2ccccc12` [IAA, 1H-indol-3-ylacetic acid], for which the “inhibition of the human sweet receptor” value at human T1R2+T1R3 receptor is “did not inhibit”. Moreover, on human T1R2+T1R3 receptor (setting [3]), the IC50 was more than 1000 µM.
As to `O=C(O)CCCc1c[nH]c2ccccc12` [IBA, 4-(1H-indol-3-yl)butanoic acid], the “inhibition of the human sweet receptor” value on human T1R2+T1R3 receptor is reported as “did not inhibit”.
On to `O=C(O)CCc1c[nH]c2ccccc12` [IPA, 3-(1H-indol-3-yl)propanoic acid], for which the “inhibition of the human sweet receptor” value on human T1R2+T1R3 receptor is “did not inhibit”. On human T1R2+T1R3 receptor (setting [3]), the IC50 was more than 1000 µM.
Regarding `Cc1cc(Cl)ccc1OC(C)C(=O)O` (centres unmarked) [MCPP, 2-(4-chloro-2-methylphenoxy) propanoic acid], the IC50 on human T1R2+T1R3 receptor was 5 to 12 µM.
Regarding `O=C(O)Cc1cccc2ccccc12` [NAA, naphthalen-1-ylacetic acid], the IC50 at human T1R2+T1R3 receptor (setting [2]) was not below 142 µM.
On to `O=C(O)Cc1ccccc1` [PAA, phenylacetic acid], for which the IC50 on human T1R2+T1R3 receptor is not below 142 µM.
